Source: patent US20090131459A1, “2-Thioxanthine Derivatives Acting as MPO-Inhibitors” (ASTRAZENECA AB, priority 2006, published 2009)
pIC50: −log10 of the molar value.

Biological target: T1, human MPO (Homo sapiens, UniProt P05164)
T1 sequence (P05164 49-745): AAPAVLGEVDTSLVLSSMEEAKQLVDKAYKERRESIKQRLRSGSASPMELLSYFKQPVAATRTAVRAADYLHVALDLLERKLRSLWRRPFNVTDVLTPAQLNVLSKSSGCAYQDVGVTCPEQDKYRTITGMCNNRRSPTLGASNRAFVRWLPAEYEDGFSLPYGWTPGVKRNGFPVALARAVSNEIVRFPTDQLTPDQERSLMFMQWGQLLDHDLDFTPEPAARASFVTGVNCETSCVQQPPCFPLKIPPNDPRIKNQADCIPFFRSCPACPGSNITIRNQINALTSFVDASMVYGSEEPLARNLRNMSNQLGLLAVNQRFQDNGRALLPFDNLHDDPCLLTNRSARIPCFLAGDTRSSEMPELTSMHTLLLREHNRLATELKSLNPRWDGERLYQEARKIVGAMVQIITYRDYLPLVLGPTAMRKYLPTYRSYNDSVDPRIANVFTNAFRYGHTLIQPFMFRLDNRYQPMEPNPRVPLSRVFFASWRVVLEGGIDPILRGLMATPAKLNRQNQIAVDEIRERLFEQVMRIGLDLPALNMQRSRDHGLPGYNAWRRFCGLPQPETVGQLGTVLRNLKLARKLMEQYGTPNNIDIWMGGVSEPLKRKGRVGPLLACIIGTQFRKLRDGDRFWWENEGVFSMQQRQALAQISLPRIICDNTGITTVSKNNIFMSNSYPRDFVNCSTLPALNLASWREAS
Assay: MPO inhibition screen (TMB oxidation, with or without added tyrosine)
Assay type: biochemical
Details: in the presence of tyrosine
Protocol: Methods for the determination of MPO inhibitory activity are disclosed in patent application WO 02/090575. The pharmacological activity of compounds according to the invention was tested in the following screen in which the compounds were either tested alone or in the presence of added tyrosine:
Assay buffer: 20 mM sodium/potassium phosphate buffer pH 6.5 containing 10 mM taurine and 100 mM NaCl.
Developing reagent: 2 mM 3,3′,5,5′-tetramethylbenzidine (TMB), 200 μM KI, 200 mM acetate buffer pH 5.4 with 20% DMF.
To 10 μl of diluted compounds in assay buffer, 40 μl of human MPO (final concentration […]), with or without 20 μM tyrosine (final concentration, if present, 8 μM), was added and the mixture was incubated for 10 minutes at ambient temperature. Then 50 μl of H2O2 (final concentration 100 μM), or assay buffer alone as a control, were added. After incubation for 10 minutes at ambient temperature, the reaction was stopped by adding 10 μl 0.2 mg/ml of catalase (final concentration 18 μg/ml). The reaction mixture was left for an additional 5 minutes before 100 μl of TMB developing reagent was added. The amount of oxidised 3,3′,5,5′-tetramethylbenzidine formed was then measured after about 5 minutes using absorbance spectroscopy at about […]. IC50 values were then determined using standard procedures.

Molecule `CCOC(C)Cn1c(=S)[nH]c(=O)c2[nH]cnc21` (racemic) [Example 5, 3-(2-Ethoxy-propyl)-2-thioxanthine] has a pIC50 of 6.30.
